Measurements: ChEMBL document CHEMBL1201862, “PubChem BioAssay data set” (2004)
The source made the active and inactive calls.

Experiments:
[1] = Cytotoxicity screening for potential Inhibitors of Bacterial Capsule Biogenesis. [Related pubchem assays (depositor defined):AID488970]; format: functional
[2] = tested on: Streptococcus; test: Group A Streptococcus viability loss, dose response, counter-screen for streptokinase expression inhibitor project, luminescence, BacTiterGlo (AID 1915); format: functional, organism-based;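 further: potency for reduction of bacterial viability or growth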
[3] = molecular target: Trypsin (Sus scrofa, UniProt P00761); test: porcine trypsin inhibitors, dose response, selectivity assay for Rce1 protease inhibitor project, biochemical, quenched peptide fluorescence, cherry-pick (AID 488789)
Trypsin, sequence (P00761 whole entry): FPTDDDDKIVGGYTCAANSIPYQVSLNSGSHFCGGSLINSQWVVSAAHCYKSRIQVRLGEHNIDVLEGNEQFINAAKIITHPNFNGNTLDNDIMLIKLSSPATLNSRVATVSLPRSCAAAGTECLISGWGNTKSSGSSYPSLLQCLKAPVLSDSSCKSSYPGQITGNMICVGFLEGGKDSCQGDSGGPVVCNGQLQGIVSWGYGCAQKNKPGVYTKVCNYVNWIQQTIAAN

[4] = C. albicans growth with fluconazole, confirmation, fluorescence, retest (AID 2467); format: functional, cell-based
[5] = molecular target: T1, CAAX prenyl protease 2 (Homo sapiens, UniProt Q9Y256); test: human Rce1 protease inhibitors, dose response, biochemical, yeast membranes, quenched-peptide fluorescence, cherry-pick (AID 588849)
T1 sequence (Q9Y256 whole entry): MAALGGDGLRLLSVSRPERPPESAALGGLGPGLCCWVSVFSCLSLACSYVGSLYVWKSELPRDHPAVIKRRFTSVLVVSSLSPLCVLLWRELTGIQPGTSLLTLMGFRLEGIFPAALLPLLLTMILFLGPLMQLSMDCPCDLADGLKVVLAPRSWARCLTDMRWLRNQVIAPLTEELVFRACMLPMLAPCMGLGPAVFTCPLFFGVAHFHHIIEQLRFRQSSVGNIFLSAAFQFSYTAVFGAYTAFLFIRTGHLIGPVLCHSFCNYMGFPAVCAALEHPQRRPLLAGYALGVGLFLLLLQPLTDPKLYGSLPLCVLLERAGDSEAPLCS

[6] = molecular target: T2, DNA repair protein RAD52 homolog (Homo sapiens, UniProt P43351); format: functional, biochemical
T2 sequence (P43351 whole entry): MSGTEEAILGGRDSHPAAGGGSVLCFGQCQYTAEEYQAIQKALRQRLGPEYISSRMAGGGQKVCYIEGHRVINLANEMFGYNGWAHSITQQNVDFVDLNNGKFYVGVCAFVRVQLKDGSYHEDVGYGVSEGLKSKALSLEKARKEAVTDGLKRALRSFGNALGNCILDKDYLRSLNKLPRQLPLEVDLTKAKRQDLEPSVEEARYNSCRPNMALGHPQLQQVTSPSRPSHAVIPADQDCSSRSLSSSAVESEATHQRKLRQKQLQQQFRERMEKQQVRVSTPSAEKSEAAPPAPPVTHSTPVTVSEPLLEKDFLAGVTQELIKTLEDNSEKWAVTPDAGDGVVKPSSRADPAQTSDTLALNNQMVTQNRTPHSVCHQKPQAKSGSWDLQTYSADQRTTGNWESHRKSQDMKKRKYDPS

[7] = tested on: Streptococcus sp. 'group A'; test: growth inhibition of control SK(-) GAS strain, dose response, counter-screen for streptokinase expression inhibitor project, luminescence, kanamycin, BacTiterGlo, confirmation (AID 1900); format: functional, organism-based
[8] = molecular target: T3, Rac GTPase-activating protein 1 (Homo sapiens, UniProt Q9H0H5); test: MgcRacGAP GTPase-activating activity inhibitors, confirmation, biochemical, ADP Hunter fluorescence, primary and confirmatory (AID 624330); format: functional
T3 sequence (Q9H0H5 whole entry): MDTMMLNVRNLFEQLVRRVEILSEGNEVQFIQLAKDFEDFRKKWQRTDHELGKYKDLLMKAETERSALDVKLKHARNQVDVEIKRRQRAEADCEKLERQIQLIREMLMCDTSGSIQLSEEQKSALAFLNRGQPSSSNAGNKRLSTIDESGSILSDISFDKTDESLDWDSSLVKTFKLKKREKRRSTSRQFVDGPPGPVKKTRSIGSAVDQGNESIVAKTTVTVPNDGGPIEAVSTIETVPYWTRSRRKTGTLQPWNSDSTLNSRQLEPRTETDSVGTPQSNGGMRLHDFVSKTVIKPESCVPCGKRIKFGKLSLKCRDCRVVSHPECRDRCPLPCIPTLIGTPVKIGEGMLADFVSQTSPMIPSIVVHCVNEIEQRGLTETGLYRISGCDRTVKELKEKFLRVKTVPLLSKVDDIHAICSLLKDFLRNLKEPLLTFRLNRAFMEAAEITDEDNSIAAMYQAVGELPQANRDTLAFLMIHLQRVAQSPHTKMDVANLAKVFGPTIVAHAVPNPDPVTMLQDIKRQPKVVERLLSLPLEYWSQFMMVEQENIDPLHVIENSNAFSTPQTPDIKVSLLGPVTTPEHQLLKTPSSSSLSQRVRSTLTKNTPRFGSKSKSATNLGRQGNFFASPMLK

[9] = A cytotoxicity screen of small molecule inhibitors of the PhoP region in Salmonella typhi identified in the primary screen. [Related pubchem assays: 1850, 1864, 1985 ]; format: functional
[10] = molecular target: T4, Ubiquitin-conjugating enzyme E2 N (Homo sapiens, UniProt P61088); format: functional
T4 sequence (P61088 whole entry): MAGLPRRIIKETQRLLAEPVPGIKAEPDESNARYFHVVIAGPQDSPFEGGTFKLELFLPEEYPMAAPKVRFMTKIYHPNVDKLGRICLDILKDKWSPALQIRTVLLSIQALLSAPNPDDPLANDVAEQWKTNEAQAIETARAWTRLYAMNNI

[11] = molecular target: T5, Endoribonuclease toxin MazF (Escherichia coli K-12, UniProt P0AE70); test: fluorescent RNA oligo signal without MazF, dose response, counter-screen for MazEF activator project, biochemical, fluorescence, single-stranded RNase substrate (AID 588502); format: functional
T5 sequence (P0AE70 whole entry): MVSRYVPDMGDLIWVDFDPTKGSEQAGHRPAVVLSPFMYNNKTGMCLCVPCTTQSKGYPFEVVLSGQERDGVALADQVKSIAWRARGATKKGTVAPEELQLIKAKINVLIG

[12] = molecular target: T4, Ubiquitin-conjugating enzyme E2 N; format: functional; remark: listed apart in the source
[13] = molecular target: T6, Bcl-2-related protein A1 (Mus musculus, UniProt Q07440); format: functional;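 further: confirmatory dose–response counterscreen on Bfl-1, used to check hits from a UBC13 polyubiquitin inhibitor campaign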
T6 sequence (Q07440 whole entry): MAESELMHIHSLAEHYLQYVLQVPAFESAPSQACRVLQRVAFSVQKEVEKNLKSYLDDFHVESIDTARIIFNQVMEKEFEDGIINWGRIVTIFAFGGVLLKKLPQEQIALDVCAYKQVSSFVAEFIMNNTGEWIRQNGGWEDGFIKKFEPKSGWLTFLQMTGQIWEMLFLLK

[14] = molecular target: T7, Streptokinase A (Streptococcus pyogenes serotype M1, UniProt P10520); test: S. pyogenes streptokinase expression inhibitors, potency, dose response, plasminogen activation absorbance, OD405 (AID 1914); format: functional, Streptococcus pyogenes M1 GAS;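 further: secreted streptokinase activity via plasminogen activation per viability signal from cell pellet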
T7 sequence (P10520 whole entry): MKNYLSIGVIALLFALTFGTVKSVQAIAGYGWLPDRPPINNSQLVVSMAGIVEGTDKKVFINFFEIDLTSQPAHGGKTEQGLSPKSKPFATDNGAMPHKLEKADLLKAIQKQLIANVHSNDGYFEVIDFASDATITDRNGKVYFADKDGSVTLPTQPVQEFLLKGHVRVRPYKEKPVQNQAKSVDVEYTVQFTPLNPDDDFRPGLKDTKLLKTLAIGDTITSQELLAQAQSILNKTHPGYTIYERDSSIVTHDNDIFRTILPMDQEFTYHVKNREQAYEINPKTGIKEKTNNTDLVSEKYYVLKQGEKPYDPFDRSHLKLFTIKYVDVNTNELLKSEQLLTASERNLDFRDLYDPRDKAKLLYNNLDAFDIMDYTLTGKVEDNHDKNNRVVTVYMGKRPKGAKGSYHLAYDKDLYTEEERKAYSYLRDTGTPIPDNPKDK

[15] = NIH-3T3 fibroblast cytotoxicity, dose response, cytotoxicity control, cell-based, fluorescence, Alamar Blue, secondary assay (AID 2327); format: functional;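 further: NIH-3T3 mouse fibroblasts cultured with fluconazole at 8 µg/mL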
[16] = tested on: Escherichia coli; test: microbe, parasite or virus in culture
[17] = molecular target: T5, Endoribonuclease toxin MazF; test: MazF toxin RNase activators, dose response, biochemical, fluorescence, single-stranded RNA substrate, uHTS hits (AID 588481); format: functional
[18] = molecular target: Neurotensin receptor type 1 (Homo sapiens, UniProt P30989); format: functional;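 further: Image-based confirmatory dose-response assay measuring agonist activity at NTR1; NTR1-expressing U2OS osteosarcoma cells imaged for beta-arrestin GFP spot formation; agonist potency where compounds increase beta-arrestin recruitment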
Neurotensin receptor type 1, sequence (P30989 whole entry): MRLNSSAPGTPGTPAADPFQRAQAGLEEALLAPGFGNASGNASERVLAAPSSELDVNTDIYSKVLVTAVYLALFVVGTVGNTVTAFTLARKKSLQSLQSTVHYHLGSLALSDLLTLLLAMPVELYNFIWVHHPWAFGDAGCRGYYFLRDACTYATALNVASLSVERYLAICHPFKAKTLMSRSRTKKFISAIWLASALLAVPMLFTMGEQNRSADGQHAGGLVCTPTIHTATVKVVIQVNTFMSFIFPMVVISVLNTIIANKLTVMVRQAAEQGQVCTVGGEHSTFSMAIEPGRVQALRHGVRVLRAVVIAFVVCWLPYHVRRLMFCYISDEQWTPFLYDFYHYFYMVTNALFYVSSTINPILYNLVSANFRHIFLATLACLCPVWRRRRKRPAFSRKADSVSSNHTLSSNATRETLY

[19] = molecular target: T8, Microphthalmia-associated transcription factor (Homo sapiens, UniProt O75030); test: TRPM1 promoter luciferase signal decrease, dose response, MITF inhibitor project, cell-based, SK-MEL-5, cherry-picked, set 3 (AID 493073); format: functional
T8 sequence (O75030 whole entry): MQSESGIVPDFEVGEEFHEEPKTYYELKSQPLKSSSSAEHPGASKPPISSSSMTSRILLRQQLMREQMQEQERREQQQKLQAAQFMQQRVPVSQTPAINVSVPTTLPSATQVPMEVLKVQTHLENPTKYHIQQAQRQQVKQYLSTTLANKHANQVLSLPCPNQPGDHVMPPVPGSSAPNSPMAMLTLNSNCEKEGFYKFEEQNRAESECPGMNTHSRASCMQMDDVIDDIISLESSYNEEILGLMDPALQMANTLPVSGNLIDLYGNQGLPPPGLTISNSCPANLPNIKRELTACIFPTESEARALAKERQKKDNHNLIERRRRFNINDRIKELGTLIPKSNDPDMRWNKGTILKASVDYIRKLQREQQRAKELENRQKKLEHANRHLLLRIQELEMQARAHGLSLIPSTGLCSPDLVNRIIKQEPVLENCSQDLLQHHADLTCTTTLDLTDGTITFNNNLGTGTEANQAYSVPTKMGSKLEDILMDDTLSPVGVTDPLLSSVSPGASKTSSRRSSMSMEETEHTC

[20] = Shn3 3'UTR reporter inhibitors, dose response, cell-based, Clone20 osteoblasts, firefly luciferase, cherry-picked (AID 624132); format: functional;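 further: firefly luciferase luminescence from reporter carrying the Shn3 3'UTR in osteoblasts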
[21] = growth suppression of PTEN-null colon cells, dose response, cell-based, HCT116 PTEN knockout (AID 1047); format: functional;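 further: HCT116 colon tumor cells with PTEN knocked out; cells exposed to compound for 60 hours before readout; potency for loss of cell viability measured by luminescence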
[22] = growth suppression of beta-catenin-knockout colon cells, dose response, cell-based, HCT116, human colon tumor (AID 1045); format: functional;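 further: HCT116 colon tumor cells with beta catenin knocked out; cells exposed to compound for 60 hours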
[23] = control 3'UTR Renilla luciferase suppression, dose response, counter-screen for Shn3 inhibitor project, cell-based, Clone20-Shn3RL, cherry-picked (AID 624133); format: functional
[24] = molecular target: T9, Heat shock factor protein 1 (Mus musculus, UniProt P38532); test: inhibition of MG132-induced HSE-luciferase signal, confirmation, cell-based, NIH3T3, luminescence, dose retest (AID 2382); format: functional;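 further: NIH3T3 fibroblasts with HSF1-driven luciferase reporter stressed by proteasome inhibitor MG132; luminescence from HSF1-driven luciferase expression after 8 hours of MG132 stress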
T9 sequence (P38532 whole entry): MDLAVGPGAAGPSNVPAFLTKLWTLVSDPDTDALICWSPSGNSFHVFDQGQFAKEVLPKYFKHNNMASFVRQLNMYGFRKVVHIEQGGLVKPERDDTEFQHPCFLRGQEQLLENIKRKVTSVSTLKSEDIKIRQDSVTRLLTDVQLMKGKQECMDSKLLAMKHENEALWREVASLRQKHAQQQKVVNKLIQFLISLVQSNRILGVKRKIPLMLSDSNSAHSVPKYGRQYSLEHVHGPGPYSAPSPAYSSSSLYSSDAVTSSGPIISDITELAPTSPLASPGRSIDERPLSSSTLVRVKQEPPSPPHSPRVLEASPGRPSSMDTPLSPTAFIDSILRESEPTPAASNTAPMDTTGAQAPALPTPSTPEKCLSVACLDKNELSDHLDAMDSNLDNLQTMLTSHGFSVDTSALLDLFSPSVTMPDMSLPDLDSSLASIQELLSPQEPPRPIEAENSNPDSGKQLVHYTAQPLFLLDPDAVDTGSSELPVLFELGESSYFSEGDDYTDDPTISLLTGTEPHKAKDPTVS

[25] = molecular target: Sphingosine 1-phosphate receptor 1 (Homo sapiens, UniProt P21453); format: functional;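 further: Tango beta-arrestin reporter U2OS cells stimulated with S1P near its EC80; inhibitor potency meaning antagonism of receptor activation by the natural agonist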
Sphingosine 1-phosphate receptor 1, sequence (P21453 whole entry): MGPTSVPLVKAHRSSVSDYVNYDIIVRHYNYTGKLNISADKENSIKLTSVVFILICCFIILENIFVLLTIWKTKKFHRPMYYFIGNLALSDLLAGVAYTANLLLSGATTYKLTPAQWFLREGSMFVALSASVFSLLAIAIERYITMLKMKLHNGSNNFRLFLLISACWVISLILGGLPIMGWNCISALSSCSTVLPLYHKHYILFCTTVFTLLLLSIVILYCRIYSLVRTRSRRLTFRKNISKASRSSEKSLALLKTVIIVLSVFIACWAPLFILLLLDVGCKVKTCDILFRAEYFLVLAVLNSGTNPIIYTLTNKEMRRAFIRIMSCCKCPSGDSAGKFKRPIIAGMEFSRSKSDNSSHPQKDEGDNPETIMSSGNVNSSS

[26] = HepG2 cell cytotoxicity, dose response, cytotoxicity control for Shn3 inhibitor project, CellTiter-Glo, cherry-picked (AID 624134); format: functional, cell-based
[27] = molecular target: T10, Sphingosine 1-phosphate receptor 4 (Homo sapiens, UniProt O95977); test: Fluorescence dose response cell-based high throughput screening assay for antagonists of the Sphingosine 1-Phosphate Receptor 4 (S1P4). [Related pubchem assays: 1524 (Confirmation in triplicates.), 1510 (Primary screen.)]; format: functional
T10 sequence (O95977 whole entry): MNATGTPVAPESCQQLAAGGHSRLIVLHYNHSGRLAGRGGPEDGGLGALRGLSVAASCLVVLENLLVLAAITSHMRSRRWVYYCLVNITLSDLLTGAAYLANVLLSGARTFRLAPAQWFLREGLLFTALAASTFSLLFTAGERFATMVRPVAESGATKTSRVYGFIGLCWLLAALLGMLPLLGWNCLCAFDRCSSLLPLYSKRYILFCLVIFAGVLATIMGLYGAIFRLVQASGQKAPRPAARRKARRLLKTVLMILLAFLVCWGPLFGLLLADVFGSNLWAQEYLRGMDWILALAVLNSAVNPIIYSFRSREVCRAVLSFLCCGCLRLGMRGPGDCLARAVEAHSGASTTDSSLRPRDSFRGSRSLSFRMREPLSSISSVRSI

## N=C(N)c1ccc(/C=C/c2ccc(C(=N)N)cc2O)cc1
[1]
  CC50: > 100 µM (active)
[2]
  EC50: > 150 µM (not active)
[3]
  AC50: 3.15 µM (active)
[4]
  EC50: 0.529 µM (active)
[5]
  AC50: > 100 µM (inactive)
[6]
  AC50: 0.708 µM (active)
[7]
  EC50: 1.43 µM (active)
[8]
  IC50: 39 µM (active)
[9]
  EC50: > 50 µM (active)
[10]
  IC50: 2.8 µM (active)
[11]
  EC50: > 99 µM (inactive)
[12]
  IC50: 3.61 µM (active)
[13]
  IC50: > 20 µM (inactive)
[14]
  EC50: 20 µM (active)
[15]
  EC50: > 150 µM (inactive)
[16]
  AC50: 37.7 µM (active)
[17]
  EC50: 4.77 µM (active)

## COc1ccc(Oc2cc(NC(=O)c3nn(C)cc3[N+](=O)[O-])cc([N+](=O)[O-])c2)cc1
[18]
  EC50: 8.91 µM (active)
[19]
  AC50: 8.94 µM (active)
[20]
  AC50: 0.813 µM (active)
[21]
  EC50: 0.219 µM (active)
[22]
  EC50: 0.17 µM (active)
[23]
  AC50: 5.01 µM (active)
[24]
  EC50: 8.9 µM (inconclusive)
[25]
  IC50: 17.4 µM (not active)
[26]
  AC50: 21.1 µM (active)
[27]
  IC50: 1.08 µM (active)
